Test results as given in the supplement of paper PMC10307832.

Columns and labels:
Assay in all cases: relative viability (nuclei count vs DMSO), 5 days (fraction); higher = more cells survive
[1] = compound: CC1(C)CNc2cc(NC(=O)c3cccnc3NCc3ccncc3)ccc21 [Motesanib] + N=C(N)NC(=N)NCCc1ccccc1 [Phenformin] (partner 250 µM)
How it was run: (§1)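 Each reported value is a median over duplicate plates. It expresses relative viability: treated-well nuclei count divided by vehicle-well nuclei count. Lung cancer cell lines in 1536-well plates were dosed by pin tool a day after seeding, alone with one drug or with a fixed anchor-drug dose plus five library-drug doses (not always all listed) in √10 steps, and nuclei were counted after 5 days.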

[2] = compound: C[C@@]1(C(=O)Nc2ccc(F)nc2)CCCN1c1nc(Nc2cc(C3CC3)n[nH]2)c2cccn2n1 + CCNC(=O)c1noc(-c2cc(C(C)C)c(O)cc2O)c1-c1ccc(CN2CCOCC2)cc1 [Luminespib] (partner 0.01 µM)
How it was run: as §1

[3] = compound: C[C@@]1(C(=O)Nc2ccc(F)nc2)CCCN1c1nc(Nc2cc(C3CC3)n[nH]2)c2cccn2n1 + Cc1nc(NC(=O)N2CCC[C@H]2C(N)=O)sc1-c1ccnc(C(C)(C)C(F)(F)F)c1 [Alpelisib] (partner 2 µM)
How it was run: as §1

[4] = compound: CC1(C)CNc2cc(NC(=O)c3cccnc3NCc3ccncc3)ccc21 [Motesanib] + CC1(C)CCC(c2ccc(Cl)cc2)=C(CN2CCN(c3ccc(C(=O)NS(=O)(=O)c4ccc(N[C@H](CCN5CCOCC5)CSc5ccccc5)c(S(=O)(=O)C(F)(F)F)c4)cc3)CC2)C1 [Navitoclax] (partner 0.5 µM)
How it was run: as §1

With SW 1573 the relative viability ([1]; first compound 0.01 µM) was 0.468, the relative viability ([1]; first compound 0.03162 µM) was 0.343 and the relative viability ([1]; first compound 0.1 µM) was 0.388. The relative viability ([1]; first compound 0.3162 µM) was 0.36, the relative viability ([1]; first compound 1 µM) was 0.421 and the relative viability ([2]; first compound 0.04 µM) was 0.224. The relative viability ([2]; first compound 0.1265 µM) was 0.185, the relative viability ([2]; first compound 0.4 µM) was 0.182 and the relative viability ([2]; first compound 1.265 µM) was 0.143. The relative viability ([3]; first compound 0.04 µM) was 0.802, the relative viability ([3]; first compound 0.1265 µM) was 0.518 and the relative viability ([3]; first compound 0.4 µM) was 0.523. The relative viability ([3]; first compound 1.265 µM) was 0.715, the relative viability ([4]; first compound 0.01 µM) was 0.902 and the relative viability ([4]; first compound 0.03162 µM) was 0.994. It also gave a relative viability ([4]; first compound 0.1 µM) of 0.824, a relative viability ([4]; first compound 0.3162 µM) of 1.1 and a relative viability ([4]; first compound 1 µM) of 1.06.
